Each compound was assayed against VEGFR-2 kinase (Homo sapiens (Human), UniProt P35968) (assay: Test of small molecule compounds for inhibiting the activity of VEGFR-2 kinase). Settings: class symbols A-D.
Format: biochemical
Description: Test of Small Molecule Compounds for Inhibiting the Activity of VEGFR-2 Kinase
The test was carried out as follows:
2. 2.5 μl of the gradient-diluted compounds was taken with a transfer pipette to a 384-well plate,
3. Addition of enzyme: 5 μl of 2×VEGFR-2 kinase was taken with a transfer pipette to the corresponding reaction well of the 384-well plate, which was mixed and pre-reacted at room temperature for 30 min,
5. Negative control: 2.5 μl/well 4× substrate/ATP Mix and 7.5 μl 1× Kinase Assay Buffer were added to the wells of the 384-well plate,
Positive control: 2.5 μl/well 4× substrate/ATP Mix, 2.5 μl/well 1× Kinase Assay Buffer containing 4% DMSO, and 5 μl/well 2×VEGFR-2 solution were added to the 384-well plate. The final concentration of DMSO in the reaction system is […],
6. The mixture was mixed well and then centrifuged and reacted at room temperature in dark for 60 min,
9. The 384-well plate was placed into the Envision plate reader and the signal was detected using the appropriate program,

Sequence of VEGFR-2 kinase (P35968 20-1356): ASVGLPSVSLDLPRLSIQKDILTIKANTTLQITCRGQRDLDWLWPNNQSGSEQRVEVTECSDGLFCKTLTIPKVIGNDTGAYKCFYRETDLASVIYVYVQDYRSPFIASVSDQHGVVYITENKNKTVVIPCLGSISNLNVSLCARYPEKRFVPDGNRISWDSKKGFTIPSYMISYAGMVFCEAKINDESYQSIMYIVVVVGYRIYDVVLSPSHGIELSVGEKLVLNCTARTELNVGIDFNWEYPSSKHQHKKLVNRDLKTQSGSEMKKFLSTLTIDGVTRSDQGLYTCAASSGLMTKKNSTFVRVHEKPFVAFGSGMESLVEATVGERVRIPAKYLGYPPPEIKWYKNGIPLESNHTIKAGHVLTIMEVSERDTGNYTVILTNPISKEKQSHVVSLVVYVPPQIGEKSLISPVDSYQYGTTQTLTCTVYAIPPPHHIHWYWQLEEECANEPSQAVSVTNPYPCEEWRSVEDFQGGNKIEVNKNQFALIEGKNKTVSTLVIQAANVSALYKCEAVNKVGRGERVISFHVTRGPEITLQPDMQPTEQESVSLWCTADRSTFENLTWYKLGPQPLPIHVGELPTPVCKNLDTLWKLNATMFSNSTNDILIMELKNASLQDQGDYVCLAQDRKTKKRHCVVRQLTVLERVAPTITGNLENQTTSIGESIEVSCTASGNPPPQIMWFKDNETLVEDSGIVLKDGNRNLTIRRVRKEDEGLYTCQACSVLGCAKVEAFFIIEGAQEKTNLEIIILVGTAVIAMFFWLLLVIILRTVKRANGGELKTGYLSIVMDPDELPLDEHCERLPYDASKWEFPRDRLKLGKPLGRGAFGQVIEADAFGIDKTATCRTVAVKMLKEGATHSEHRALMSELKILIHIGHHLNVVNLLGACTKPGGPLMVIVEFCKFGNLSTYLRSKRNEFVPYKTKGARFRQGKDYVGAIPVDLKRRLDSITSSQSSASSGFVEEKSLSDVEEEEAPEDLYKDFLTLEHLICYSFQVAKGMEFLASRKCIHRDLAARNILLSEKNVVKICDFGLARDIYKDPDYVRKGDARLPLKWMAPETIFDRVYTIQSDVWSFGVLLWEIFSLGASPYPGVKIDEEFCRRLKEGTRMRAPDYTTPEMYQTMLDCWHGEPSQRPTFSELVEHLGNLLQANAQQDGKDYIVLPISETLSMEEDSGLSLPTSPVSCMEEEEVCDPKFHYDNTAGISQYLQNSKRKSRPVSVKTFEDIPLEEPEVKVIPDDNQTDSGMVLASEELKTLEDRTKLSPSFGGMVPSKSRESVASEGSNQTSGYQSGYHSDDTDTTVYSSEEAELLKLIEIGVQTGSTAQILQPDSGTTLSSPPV

For `O=C(Nc1ccc(Oc2ncnc3cc(OCCCN4CCS(=O)(=O)CC4)c4c(c23)OCCO4)cc1)Nc1cc(C(F)(F)F)ccc1F` [Example 81, 1-(4-((5-(3-(1,1-dioxidothiomorpholino)propoxy)-2,3-dihydro-[1,4]dioxino[2,3-f]quinazolin-10-yl)oxy)phenyl)-3-(2-fluoro-5-(trifluoromethyl)phenyl)urea], which IC50 is on record?
The IC50 was less than 0.05 µM.

For `COc1cc2nccc(Oc3ccc(NC(=O)Nc4ccc(Cl)c(C(F)(F)F)c4)cc3)c2c2c1OCCO2` [Example 90, 1-(4-chloro-3-(trifluoromethyl)phenyl)-3-(4-((5-methoxy-2,3-dihydro-[1,4]dioxino[2,3-f]quinolin-10-yl)oxy)phenyl)urea], which IC50 is on record?
The IC50 was less than 0.05 µM.

For `COc1cc2ncnc(Oc3ccc(NC(=O)Nc4ccc(F)cc4F)c(F)c3)c2c2c1OCCO2` [Example 21, 1-(2,4-difluorophenyl)-3-(2-fluoro-4-((5-methoxy-2,3-dihydro-[1,4]dioxino[2,3-f]quinazolin-10-yl)oxy)phenyl)urea], which IC50 is on record?
The IC50 was less than 0.05 µM.

With `CSCCOc1cc2ncnc(Oc3ccc(NC(=O)NC4CC4)c(Cl)c3)c2c2c1OCCO2` [Example 85, 1-(2-chloro-4-(((5-(2-methylthio)ethoxy)-2,3-dihydro-[1,4]dioxino[2,3-f]quinazolin-10-yl)oxy)phenyl)-3-cyclopropylurea] as the compound, how does the IC50 read?
Its IC50 is 0.5 to 5 µM.

With `CSCCOc1cc2ncnc(Nc3ccc(NC(=O)NC4CC4)c(Cl)c3)c2c2c1OCCO2` [Example 84, 1-(2-chloro-4-((5-(2-methylthioethoxy)-2,3-dihydro-[1,4]dioxino[2,3-f]quinazolin-10-yl)amino)phenyl)-3-cyclopropylurea] as the compound, how does the IC50 read?
The IC50 was less than 0.05 µM.

With `CN1CCN(CCOc2cc3ncnc(Nc4ccc(NC(=O)NC5CC5)c(Cl)c4)c3c3c2OCCO3)CC1` [Example 83, 1-(2-chloro-4-((5-(2-(1-methylpiperazin-4-yl)ethoxy)-2,3-dihydro-[1,4]dioxino[2,3-f]quinazolin-10-yl)amino)phenyl)-3-cyclopropylurea] as the compound, how does the IC50 read?
The IC50 was 0.05 to 0.5 µM.

With `COc1cc2ncnc(Oc3ccc(NC(=O)Nc4ccc(F)cc4)c(Cl)c3)c2c2c1OCCO2` [Example 16, 1-(2-chloro-4-((5-methoxy-2,3-dihydro-[1,4]dioxino[2,3-f]quinazolin-10-yl)oxy)phenyl)-3-(4-fluorophenyl)urea] as the compound, how does the IC50 read?
The IC50 was less than 0.05 µM.

For `COCCOc1cc2ncnc(Oc3ccc(NC(=O)NC4CCC4)c(Cl)c3)c2c2c1OCCO2` [Example 54, 1-(2-chloro-4-((5-(2-methoxyethoxy)-2,3-dihydro-[1,4]dioxino[2,3-f]quinazolin-10-yl)oxy)phenyl)-3-cyclobutylurea], which IC50 is on record?
Its IC50 is less than 0.05 µM.

`COc1cc2ncnc(Nc3ccc(NC(=O)Nc4cc(C)no4)c(Cl)c3)c2c2c1OCCO2` [Example 8, 1-(2-chloro-4-((5-methoxy-2,3-dihydro-[1,4]dioxino[2,3-f]quinazolin-10-yl)amino)phenyl)-3-(3-methylisoxazol-5-yl)urea] was tested. Which IC50 did it give?
The IC50 was 0.05 to 0.5 µM.

For `COCCOc1cc2ncnc(Nc3ccc(NC(=O)Nc4cc(C)no4)c(Cl)c3)c2c2c1OCCO2` [Example 39, 1-(2-chloro-4-((5-(2-methoxyethoxy)-2,3-dihydro-[1,4]dioxino[2,3-f]quinazolin-10-yl)amino)phenyl)-3-(3-methylisoxazol-5-yl)urea], which IC50 is on record?
Its IC50 is less than 0.05 µM.

For `COc1cccc(NC(=O)Nc2ccc(Nc3ncnc4cc(OC)c5c(c34)OCCO5)cc2Cl)c1` [Example 4, 1-(2-chloro-4-((5-methoxy-2,3-dihydro-[1,4]dioxino[2,3-f]quinazolin-10-yl)amino)phenyl)-3-(3-methoxyphenyl)urea], which IC50 is on record?
The IC50 was less than 0.05 µM.

`COc1cc2ncnc(Nc3ccc(NC(=O)Nc4ccccc4)c(Cl)c3)c2c2c1OCCO2` [Example 6, 1-(2-chloro-4-((5-methoxy-2,3-dihydro-[1,4]dioxino[2,3-f]quinazolin-10-yl)amino)phenyl)-3-phenylurea] was tested. Which IC50 did it give?
The IC50 was 0.05 to 0.5 µM.

`COCCOc1cc2nccc(Oc3ccc(NC(=O)Nc4ccc(Cl)c(C(F)(F)F)c4)cc3)c2c2c1OCCO2` [Example 93, 1-(4-chloro-3-(trifluoromethyl)phenyl)-3-(4-((5-(2-methoxyethoxy)-2,3-dihydro-[1,4]dioxino[2,3-f]quinoline-10-yl)oxy)phenyl)urea] was tested. Which IC50 did it give?
Its IC50 is 0.05 to 0.5 µM.

`COc1cc2ncnc(Nc3ccc(NC(=O)NC4CCC4)c(Cl)c3)c2c2c1OCCO2` [Example 27, 1-(2-chloro-4-((5-methoxy-2,3-dihydro-[1,4]dioxino[2,3-f]quinazolin-10-yl)amino)phenyl)-3-cyclobutylurea] was tested. Which IC50 did it give?
The IC50 was less than 0.05 µM.

How did the IC50 turn out when `COc1cc2ncnc(Nc3ccc(NC(=O)Nc4ccccn4)c(Cl)c3)c2c2c1OCCO2` [Example 5, 1-(2-chloro-4-((5-methoxy-2,3-dihydro-[1,4]dioxino[2,3-f]quinazolin-10-yl)amino)phenyl)-3-(pyridin-2-yl)urea] was run?
The IC50 was greater than 5 µM.

Which IC50 does the source give for `CN(C)CCCOc1cc2ncnc(Nc3ccc(NC(=O)NC4CC4)c(Cl)c3)c2c2c1OCCO2` [Example 82, 1-(2-chloro-4-((5-(3-(dimethylamino)propoxy)-2,3-dihydro-[1,4]dioxino[2,3-f]quinazolin-10-yl)amino)phenyl)-3-cyclopropylurea] here?
Its IC50 is less than 0.05 µM.

`O=C(Nc1ccc(Nc2ncnc3cc(OCCCN4CCCC4)c4c(c23)OCCO4)cc1Cl)NC1CC1` [Example 61, 1-(2-chloro-4-((5-(3-(pyrrolidin-1-yl)propoxy)-2,3-dihydro-[1,4]dioxino[2,3-f]quinazolin-10-yl)amino)phenyl)-3-cyclopropylurea] was tested. Which IC50 did it give?
The IC50 was less than 0.05 µM.

With `O=C(Nc1ccc(Oc2ncnc3cc(OCCN4CCCC4)c4c(c23)OCCO4)cc1)Nc1cc(C(F)(F)F)ccc1F` [Example 76, 1-(2-fluoro-5-(trifluoromethyl)phenyl)-3-(4-((5-(2-(tetrahydropyrrol-1-yl)ethoxy)-2,3-dihydro-[1,4]dioxino[2,3-f]quinazolin-10-yl)oxy)phenyl)urea] as the compound, how does the IC50 read?
Its IC50 is greater than 5 µM.

For `COCCOc1cc2ncnc(Oc3ccc(NC(=O)Nc4ccnc(OC)c4)cc3)c2c2c1OCCO2` [Example 52, 1-(4-((5-(2-methoxyethoxy)-2,3-dihydro-[1,4]dioxino[2,3-f]quinazolin-10-yl)oxy)phenyl)-3-(2-methoxypyridin-4-yl)urea], which IC50 is on record?
The IC50 was less than 0.05 µM.

How did the IC50 turn out when `COc1cc2ncnc(Nc3ccc(NC(=O)NC(C)C)c(Cl)c3)c2c2c1OCCO2` [Example 9, 1-(2-chloro-4-((5-methoxy-2,3-dihydro-[1,4]dioxino[2,3-f]quinazolin-10-yl)amino)phenyl)-3-isopropylurea] was run?
Its IC50 is 0.05 to 0.5 µM.

Which IC50 does the source give for `COc1cc2nccc(Oc3ccc(NC(=O)Nc4ccc(Cl)c(C(F)(F)F)c4)cc3F)c2c2c1OCCO2` [Example 91, 1-(4-chloro-3-(trifluoromethyl)phenyl)-3-(3-fluoro-4-((5-methoxy-2,3-dihydro-[1,4]dioxino[2,3-f]quinoline-10-yl)oxy)phenyl)urea] here?
The IC50 was 0.05 to 0.5 µM.

`COCCOc1cc2ncnc(Nc3ccc(NC(=O)NC(C)C)c(Cl)c3)c2c2c1OCCO2` [Example 40, 1-(2-chloro-4-((5-(2-methoxyethoxy)-2,3-dihydro-[1,4]dioxino[2,3-f]quinazolin-10-yl)amino)phenyl)-3-isopropylurea] was tested. Which IC50 did it give?
Its IC50 is 0.05 to 0.5 µM.

Which IC50 does the source give for `O=C(Nc1ccc(Oc2ncnc3cc(OCCCN4CCOCC4)c4c(c23)OCCO4)cc1)Nc1ccc(F)c(Cl)c1` [Example 74, 1-(3-chloro-4-fluorophenyl)-3-(4-((5-(3-morpholinopropoxy)-2,3-dihydro-[1,4]dioxino[2,3-f]quinazolin-10-yl)oxy)phenyl)urea] here?
Its IC50 is less than 0.05 µM.

Which IC50 does the source give for `COCCOc1cc2ncnc(Oc3ccc(NC(=O)Nc4cc(C(F)(F)F)ccc4F)cc3F)c2c2c1OCCO2` [Example 58, 1-(3-fluoro-4-((5-(2-methoxyethoxy)-2,3-dihydro-[1,4]dioxino[2,3-f]quinazolin-10-yl)oxy)phenyl)-3-(2-fluoro-5-(trifluoromethyl)phenyl)urea] here?
Its IC50 is less than 0.05 µM.

With `COCCOc1cc2ncnc(Oc3ccc(NC(=O)Nc4ccc(Cl)c(C(F)(F)F)c4)cn3)c2c2c1OCCO2` [Example 60, 1-(4-chloro-3-(trifluoromethyl)phenyl)-3-(6-((5-(2-methoxyethoxy)-2,3-dihydro-[1,4]dioxino[2,3-f]quinazolin-10-yl)oxy)pyridin-3-yl)urea] as the compound, how does the IC50 read?
Its IC50 is 0.05 to 0.5 µM.

Which IC50 does the source give for `COCCOc1cc2ncnc(Nc3ccc(NC(=O)Nc4ccc(C(F)(F)F)cc4F)c(Cl)c3)c2c2c1OCCO2` [Example 43, 1-(2-chloro-4-((5-(2-methoxyethoxy)-2,3-dihydro-[1,4]dioxino[2,3-f]quinazolin-10-yl)amino)phenyl)-3-(2-fluoro-4-(trifluoromethyl)phenyl)urea] here?
Its IC50 is less than 0.05 µM.

`COCCOc1cc2ncnc(Nc3ccc(NC(=O)NC4CC4)c(Cl)c3)c2c2c1OCCO2` [Example 34, 1-(2-chloro-4-((5-(2-methoxyethoxy)-2,3-dihydro-[1,4]dioxino[2,3-f]quinazolin-10-yl)amino)phenyl)-3-cyclopropylurea] was tested. Which IC50 did it give?
Its IC50 is less than 0.05 µM.

Which IC50 does the source give for `COc1cc2ncnc(Oc3ccc(NC(=O)NC4CC4)c(Cl)c3)c2c2c1OCCO2` [Example 22, 1-(2-chloro-4-((5-methoxy-2,3-dihydro-[1,4]dioxino[2,3-f]quinazolin-10-yl)oxy)phenyl)-3-cyclopropylurea] here?
The IC50 was less than 0.05 µM.

Which IC50 does the source give for `O=C(Nc1ccc(Oc2ncnc3cc(OCCCN4CCOCC4)c4c(c23)OCCO4)cc1)Nc1cccc2ccccc12` [Example 31, 1-(4-((5-(3-morpholinopropoxy)-2,3-dihydro-[1,4]dioxino[2,3-f]quinazolin-10-yl)oxy)phenyl)-3-(naphthalen-1-yl)urea] here?
The IC50 was less than 0.05 µM.

For `COc1cc2ncnc(Nc3ccc(NC(=O)Nc4ccc(F)cc4)c(Cl)c3)c2c2c1OCCO2` [Example 7, 1-(2-chloro-4-((5-methoxy-2,3-dihydro-[1,4]dioxino[2,3-f]quinazolin-10-yl)amino)phenyl)-3-(4-fluorophenyl)urea], which IC50 is on record?
The IC50 was less than 0.05 µM.

From US10980809B2, “Urea-substituted aromatic ring-linked dioxane-quinazoline and -linked dioxane-quinoline compounds, preparation method therefor and use thereof” (BEIJING SCITECH-MQ PHARMACEUTICALS LIMITED, priority 2017, dated 2021)
